The supplement of paper PMC10331698
± gives the standard deviation of the averaged measurements.

Legend:
Test in all cases: level (log10 ratio to DMSO vehicle control); higher = higher biomarker level / cell amount than vehicle control
[1] = compound: OCCC(F)(F)C(F)(F)C(F)(F)C(F)(F)C(F)(F)C(F)(F)F [6:2 Fluorotelomer alcohol]; conditions: in DMSO
Experimental: (§1)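 BioMAP Diversity Plus panel of 12 human primary cell co-culture systems (3C, 4H, LPS, SAg, BT, BF4T, BE3C, CASM3C, HDF3CGF, KF3CT, MyoF, Mphg). Compounds were added 1 h before stimulation and left for 24 h (MyoF 48 h; BT 72 h for soluble read-outs or 6 d for IgG). Biomarkers were read by ELISA, cytotoxicity by SRB, PBMC viability and proliferation by Alamar Blue. Each well value was divided by the mean of 8 DMSO control wells on the same plate and log10 transformed; duplicate blinded samples were tested at 4 concentrations.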

[2] = compound: COC(=O)CCC(F)(F)C(F)(F)C(F)(F)C(F)(F)F [Methyl 2H,2H,3H,3H-perfluoroheptanoate]; conditions: in DMSO
Experimental: as §1

[3] = compound: NCC(F)(F)C(F)(F)C(F)(F)C(F)(F)C(F)(F)C(F)(F)C(F)(F)F [1H,1H-Perfluorooctylamine]; conditions: in DMSO
Experimental: as §1

[4] = compound: FC(F)C(F)(F)COCC1CO1 [((2,2,3,3-Tetrafluoropropoxy)methyl)oxirane]; conditions: in DMSO
Experimental: as §1

[5] = compound: O=C(O)C(F)(F)C(F)(F)C(F)(F)C(F)(F)C(F)(F)C(F)(F)C(F)(F)C(F)(F)C(F)(F)F [Perfluorodecanoic acid]; conditions: in DMSO
Experimental: as §1

[6] = compound: O=C(O)C(F)(F)C(F)(F)C(F)(F)F [Perfluorobutanoic acid]; conditions: in DMSO
Experimental: as §1

[7] = compound: OCCCC(F)(F)C(F)(F)C(F)(F)C(F)(F)C(F)(F)C(F)(F)C(F)(F)F [7:3 Fluorotelomer alcohol]; conditions: 6700 nM; in DMSO
Experimental: as §1

| Test System | level (log10) ([1]; 6700 nM) | level (log10) ([1]; 20000 nM) | level (log10) ([2]; 6700 nM) | level (log10) ([2]; 20000 nM) | level (log10) ([2]; 60000 nM) | level (log10) ([3]; 6700 nM) | level (log10) ([3]; 20000 nM) | level (log10) ([3]; 60000 nM) | level (log10) ([4]; 6700 nM) | level (log10) ([4]; 20000 nM) | level (log10) ([4]; 60000 nM) | level (log10) ([5]; 6700 nM) | level (log10) ([5]; 20000 nM) | level (log10) ([6]; 6700 nM) | level (log10) ([6]; 20000 nM) | level (log10) ([6]; 60000 nM) | level (log10) [7] |
| --- | --- | --- | --- | --- | --- | --- | --- | --- | --- | --- | --- | --- | --- | --- | --- | --- | --- |
| CASM3C:Serum Amyloid A | -0.013 ± 0.0028 | -0.009 ± 0.0042 | 0.009 | -0.0065 ± 0.013 | -0.0005 ± 0.022 | 0.0345 ± 0.036 | 0.043 ± 0.069 | 0.015 ± 0.061 | -0.004 ± 0.011 | 0.0215 ± 0.0035 | -0.0235 ± 0.0092 | 0.035 ± 0.031 | 0.0345 ± 0.026 | -0.021 | 0.0225 ± 0.016 | -0.009 ± 0.041 | -0.0135 ± 0.028 |
| lMphg:CCL2/MCP-1 | -0.019 ± 0.0042 | -0.025 ± 0.016 | -0.004 ± 0.0085 | -0.011 ± 0.011 | 0.003 ± 0.031 | -0.03 ± 0.0099 | -0.0245 ± 0.016 | -0.0275 ± 0.04 | -0.039 ± 0.034 | -0.018 ± 0.048 | -0.0095 ± 0.029 | 0.001 ± 0.0042 | 0.0095 ± 0.023 | -0.0205 ± 0.021 | -0.0165 ± 0.018 | 0.0135 ± 0.022 | 0.001 ± 0.0057 |
| 3C:CD141/Thrombomodulin | -0.019 ± 0.037 | -0.0445 ± 0.021 | -0.0355 ± 0.032 | -0.017 ± 0.0042 | -0.0225 ± 0.013 | -0.036 ± 0.033 | -0.0295 ± 0.033 | -0.0385 ± 0.039 | -0.007 ± 0.0085 | -0.0185 ± 0.049 | -0.0145 ± 0.039 | -0.019 ± 0.025 | -0.0445 ± 0.012 | -0.0095 ± 0.026 | -0.0105 ± 0.026 | -0.0105 ± 0.04 | -0.032 |
| HDF3CGF:Collagen III | 0.001 ± 0.038 | -0.014 ± 0.021 | 0.0065 ± 0.016 | 0.0095 ± 0.00071 | 0.0105 ± 0.015 | -0.009 ± 0.021 | -0.0055 ± 0.00071 | -0.0165 ± 0.023 | -0.002 ± 0.037 | -0.0115 ± 0.00071 | -0.0035 ± 0.011 | -0.08 ± 0.058 | -0.0755 ± 0.021 | -0.014 ± 0.011 | -0.004 ± 0.016 | 0.0135 ± 0.029 | 0.0135 ± 0.044 |
| lMphg:SRB | -0.014 ± 0.017 | -0.0125 ± 0.0021 | -0.008 ± 0.02 | -0.016 ± 0.0057 | -0.0095 ± 0.023 | -0.008 ± 0.0085 | 0.001 ± 0.0042 | -0.002 ± 0.0099 | -0.008 ± 0.0042 | 0 ± 0.0028 | -0.0125 ± 0.0021 | 0.009 ± 0.0085 | 0.004 ± 0.0057 | -0.012 ± 0.017 | -0.0235 ± 0.037 | 0.002 ± 0.031 | -0.0085 ± 0.0064 |
| HDF3CGF:CCL2/MCP-1 | 0.0015 ± 0.0035 | 0.0095 ± 0.019 | -0.039 ± 0.021 | -0.0375 ± 0.06 | -0.014 ± 0.014 | -0.006 ± 0.016 | -0.0045 ± 0.012 | -0.0165 ± 0.0078 | -0.0005 ± 0.0078 | -0.001 ± 0.013 | 0.0005 ± 0.0078 | -0.0595 ± 0.0078 | 0.042 ± 0.034 | -0.008 ± 0.021 | 0.004 ± 0.014 | 0.017 ± 0.0014 | -0.0085 ± 0.0092 |
| CASM3C:CXCL8/IL-8 | 0.019 ± 0.0014 | 0.0195 ± 0.015 | -0.0135 ± 0.011 | -0.0115 ± 0.005 | -0.0085 ± 0.013 | -0.005 ± 0.0057 | -0.022 ± 0.013 | 0.005 ± 0.027 | -0.003 ± 0.0085 | -0.0195 ± 0.028 | 0.0215 ± 0.032 | -0.0035 ± 0.0064 | -0.006 ± 0.0028 | -0.001 ± 0.013 | -0.0065 ± 0.005 | 0.008 ± 0.013 | -0.0145 ± 0.005 |
| MyoF:TIMP-1 | 0.002 ± 0.04 | 0.0085 ± 0.047 | -0.0585 ± 0.047 | -0.02 ± 0.035 | 0.01 ± 0.014 | 0.0045 ± 0.0092 | 0.01 ± 0.025 | -0.0005 ± 0.0021 | 0.0165 ± 0.018 | -0.0295 ± 0.0092 | -0.001 ± 0.023 | -0.0345 ± 0.035 | -0.059 ± 0.038 | -0.039 ± 0.055 | -0.02 ± 0.02 | 0.0035 ± 0.0092 | 0.003 ± 0.017 |
| CASM3C:CD106/VCAM-1 | 0.0105 ± 0.018 | 0.017 ± 0.0099 | -0.021 ± 0.027 | -0.019 ± 0.0071 | -0.0085 ± 0.005 | -0.018 ± 0.058 | -0.007 ± 0.035 | -0.0105 ± 0.015 | 0.0035 ± 0.022 | -0.012 ± 0.037 | 0.026 ± 0.033 | 0.0015 ± 0.0092 | -0.036 ± 0.0085 | -0.007 ± 0.016 | -0.006 ± 0.0014 | -0.039 ± 0.018 | -0.012 ± 0.016 |
